Reference: patent publication US8598384B2, “Crystalline teglicar” (Sigma-Tau Industrie Farmaceutiche Riunite S.p.A., priority 2007, dated 2013)

Assays:
[1] = Karl Fisher analysis (water content), hygroscopic stability; assay type: physicochemical; conditions: exposed to the air for 18 hours; for KF (% H2O) t = 18 h: kept at room temperature
Procedure: Water content analysis were carried out with a Metrohm's KF Coulometer, using Metrohm glass vials (volume 10 mL) with elastometric tight closure, with about 10÷40 mg of sample. The samples were analyzed at 140° C.
The reference was an empty vial of the same kind. Sodium Tartrate diHydrate (theoretical amount is 15.66%) was used to assess the calibration of the apparatus with regard to the humidity.
Then these compounds were kept at room temperature under the same conditions, exposed to the air for 18 hours.

ketogenesis = conditions: in vivo, fasted rats; cited from earlier work
[2] = target: T1, L-CPT I (liver CPT isoform I) (Homo sapiens, UniProt P50416); conditions: in vitro; cited from earlier work
T1 sequence (P50416 1-773): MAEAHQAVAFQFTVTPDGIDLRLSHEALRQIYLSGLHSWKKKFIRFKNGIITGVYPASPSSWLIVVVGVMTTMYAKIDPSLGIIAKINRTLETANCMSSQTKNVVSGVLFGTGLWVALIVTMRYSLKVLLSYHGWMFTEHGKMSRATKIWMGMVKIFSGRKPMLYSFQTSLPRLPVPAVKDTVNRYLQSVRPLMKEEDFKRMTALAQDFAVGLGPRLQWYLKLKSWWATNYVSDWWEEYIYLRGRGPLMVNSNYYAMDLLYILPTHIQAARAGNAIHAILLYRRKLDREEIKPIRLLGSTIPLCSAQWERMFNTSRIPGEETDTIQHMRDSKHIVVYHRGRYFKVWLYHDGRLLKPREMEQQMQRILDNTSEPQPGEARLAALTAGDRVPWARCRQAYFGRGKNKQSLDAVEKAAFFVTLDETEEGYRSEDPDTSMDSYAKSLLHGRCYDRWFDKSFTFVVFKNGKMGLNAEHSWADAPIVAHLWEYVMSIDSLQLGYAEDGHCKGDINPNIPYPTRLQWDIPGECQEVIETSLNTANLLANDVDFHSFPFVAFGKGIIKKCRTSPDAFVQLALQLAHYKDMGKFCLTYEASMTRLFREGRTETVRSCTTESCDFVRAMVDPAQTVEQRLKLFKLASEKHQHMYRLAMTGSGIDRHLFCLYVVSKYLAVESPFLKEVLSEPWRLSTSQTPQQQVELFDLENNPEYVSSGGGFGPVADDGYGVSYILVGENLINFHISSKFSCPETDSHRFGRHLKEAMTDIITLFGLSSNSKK

serum glucose levels = conditions: diabetic mouse model; cited from earlier work

Row | SMILES | KF (% H2O) t = 18 h [1] | change of H2O content after exposure to air ([1]; room temperature, repeated KF analysis) | effect on ketogenesis (ketogenesis) | selectivity of inhibition of L-CPT I with respect to M-CPT I [2] | change in heart weight and triglycerides content (serum glucose levels) | effect on serum glucose levels (serum glucose levels)
1 | CCCCCCCCCCCCCCNC(=O)N[C@H](CC(=O)[O-])C[N+](C)(C)C [Comparative Example 2, R-4-trimethylammonium-3-(tetradecylcarbamoyl)-amino butyrate] | 15.2% | large increase of H2O content | – | – | – | –
2 | CCCCCCCCCCCCCCNC(=O)N[C@H](CC(=O)[O-])C[N+](C)(C)C [Example 1, R-4-trimethylammonium-3-(tetradecylcarbamoyl)-amino butyrate] | 5.8% | – | – | – | – | –
3 | CCCCCCCCCCCCCCNC(=O)N[C@H](CC(=O)[O-])C[N+](C)(C)C [teglicar, R-4-trimethylammonium-3-(tetradecylcarbamoyl)-amino butyrate] | – | – | depress ketogenesis | selectively inhibit | without any significant change | good reduction of serum glucose levels
